We go through one compound from patent US10517870B2, “Aryl substituted bicycle heteroaryl compounds” (Bristol-Myers Squibb Company, priority 2015, dated 2019).

Holding throughout (assay type): cell-based
The target of assay [1] is T1, PAR4 (Homo sapiens, UniProt Q96RI0).
T1 construct: expressed in transfected cells; host or cells: HEK293 PAR4 Clone 1.2A
T1 sequence (Q96RI0 18-385): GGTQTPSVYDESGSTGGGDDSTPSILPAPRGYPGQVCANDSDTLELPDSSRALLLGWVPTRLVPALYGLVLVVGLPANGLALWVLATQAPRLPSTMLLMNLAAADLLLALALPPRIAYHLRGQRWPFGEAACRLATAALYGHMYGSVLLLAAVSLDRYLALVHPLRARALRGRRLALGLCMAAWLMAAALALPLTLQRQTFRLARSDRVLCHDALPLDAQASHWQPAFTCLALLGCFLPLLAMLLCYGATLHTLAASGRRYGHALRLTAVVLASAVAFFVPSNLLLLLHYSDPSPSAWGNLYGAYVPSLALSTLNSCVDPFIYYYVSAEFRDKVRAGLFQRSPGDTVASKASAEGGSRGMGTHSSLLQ
Description: PAR4 FLIPR assay (calcium mobilization, antagonist activity) in PAR4-expressing HEK293 cells. The text has this: The FLIPR assay is an exemplary in vitro assay for measuring the activity of the PAR4 antagonists of the present invention. In this assay, intracellular calcium mobilization is induced in PAR4 expressing cells by a PAR4 agonist and calcium mobilization is monitored.
HEK293 cells stably expressing PAR4 were generated by a standard method of transfection of human PAR4 (F2R23) cDNA expression vector and selected based on PAR4 protein expression or mRNA expression. […] These cells also express endogenous PAR1 and can elicit calcium signal upon stimulation with PAR1 agonist peptide. Therefore, the same cells were also used to determine selectivity against PAR1 and agonist activity for both receptors. Cells from HEK293 PAR4 Clone 1.2A (BMS Arctic ID 383940) were propagated and used for calcium mobilization studies.
FLIPR-based calcium mobilization assay in HEK293 cells was used to measure PAR4 antagonism, agonism, and selectivity against PAR1. The activity of the PAR4 antagonists of the present invention were tested in PAR4 expressing cells by monitoring H-Ala-Phe(4-F)-[…]NH2-induced intracellular calcium mobilization. Counter screens for agonist activity and PAR1 antagonist activity were also performed. Briefly, PAR1/PAR4-expressing HEK293 cells were grown in DMEM (Life Technology, Grand Island, N.Y.) containing 10% heat-inactivated FBS, 1% Penicillin-Streptomycin, 10 μg/mL blasticidin, and 100 μg/mL Zeocin at 37° C. with 5% CO2. Cells were plated overnight prior to the experiment in a black 384-well Purecoat Amine clear bottom plate (Becton Dickinson Biosciences, San Jose, Calif.) at 10,000 cells/well in 30 μL growth medium and incubated in a humidified chamber at 37° C. with 5% CO2 overnight. Prior to compound addition, the cell medium was replaced with 40 μL of IX calcium and magnesium-containing Hank's Balanced Saline Solution (HBSS) (with 20 mM HEPES) and 1:1000 diluted fluorescent calcium indicator (Codex Biosolutions, Gaithersburg, Md.). After a 30 minute incubation period at 37° C., and a further 30 minute incubation and equilibration period at room temperature, 20 μL test compound (diluted in 1×HBSS buffer) was added at various concentrations at 0.17% dimethyl sulfoxide (DMSO) final concentration. Changes in fluorescence intensity were measured using a Functional Drug Screening System (FDSS, Hamamatsu, Japan) to determine agonist activities. The cells were then incubated for 30 minutes at room temperature followed by addition of 20 μL of agonist peptide for antagonist activity measurement. […] Compound potency was derived from 11-point concentration-response curves.

For assay [2], the system named is Caski (HPV16+) cells. Description: Cell proliferation/viability assay, Caski cells. To be noted: Homo sapiens, Ca-Ski, 96 h, 4 days. The procedure, abridged:
(§1)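 Cells plated in antibiotic-free growth medium, compound added 2 h later (0.5% DMSO final) and incubated 4 days at 37 °C. Viability by CellTiter Blue (ex 530/em 590 nm) or CellTiter Glo luminescence; IC50 from four-parameter logistic fit of % inhibition.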

For assay [3], the system named is SiHa (HPV16+) cells. Description: Cell proliferation/viability assay, SiHa cells. To be noted: Homo sapiens, 96 h, 4 days. The procedure, abridged:
as §1

For `COc1ccc(-c2cc(C)cc3nc(OC(F)F)cnc23)cc1` [Example 6, 2-(difluoromethoxy)-5-(4-methoxyphenyl)-7-methylquinoxaline], the IC50 in assay [1] was 2.4 µM; in assay [2] it was 7.1 µM; in assay [3] it was 10.1 µM.
